{"source": "patent US11844771B2", "about": "“Methods of treating acute respiratory distress syndrome using colchicine” (INSTITUT DE C[…] MONTREAL, priority 2021, dated 2023)", "key": {"oleic acid-induced ALI [1]": {"test_system": "oleic acid-induced ALI", "assay": "Oleic acid-induced ALI rat model: lung edema and arterial blood gas", "type": "in vivo", "experimental": "(§1) Animal model and colchicine administration. Male Wistar rats weighing 250-300 g were purchased from Charles River, St. Constant, Québec. They were divided in three groups: Sham+placebo (n=8), oleic acid+placebo (n=8) and oleic acid+colchicine (n=8). Oleic acid (150 mg/kg in 0.3 cc) was prepared daily as a mixture with 0.1% bovine serum albumin (BSA) dissolved in distilled water, stored and protected from light at room temperature. Colchicine (1 mg/kg) or distilled water (placebo) was administered by daily gavage (in a volume up to 2 ml/kg) for three days before the induction of the ALI model. On the beginning of the fourth day a last forth dose of colchicine or placebo was administered and rats immediately injected via a jugular vein cannula with oleic acid or with 0.1% BSA. There was no death in the sham group. There was one death in the oleic acid+placebo group 3 hours after injection of oleic acid and prior to any measurement.\nThere was one surgical death in oleic acid+colchicine treatment by laceration of the jugular vein, prior to injection of oleic acid. Oleic acid was administered under ketamine/xylazine anesthesia by slow bolus injection over 30 seconds and the catheter was flushed with 0.3 ml of 0.1% BSA before and after injection. Four hours later, the animals were studied. Conscious unrestrained respiratory parameters were obtained by whole body plethysmography (Emka technologies). Rats were then anesthetized with 2.5% isoflurance and 100% oxygen (1 L/min) administered with a nose cone/face mask for a duration of 5 minutes before terminal exsanguination. […] Cytokines measurements were assessed with serum isolated with serum clot activator tubes.\n(§2) The lungs were excised for analysis: the left lung was cannulated and perfusion-fixed with 10% buffered formalin for histology and immunohistochemistry. […] Pulmonary edema was measured from the ratio of total divided by dry weight of the right lung. Total weight, including water, was measured and lung tissue was dried in an oven at 60° C. for 5 days and reweighed as dry weight."}, "oleic acid-induced ALI [2]": {"test_system": "oleic acid-induced ALI", "assay": "Oleic acid-induced ALI rat model: conscious respiratory parameters by whole body plethysmography", "type": "in vivo", "details": "OA + colchicine 1 mg/kg gavage, 4 hours after oleic acid, mean ± SEM", "experimental": "as §1\nThere was one surgical death in oleic acid+colchicine treatment by laceration of the jugular vein, prior to injection of oleic acid. Oleic acid was administered under ketamine/xylazine anesthesia by slow bolus injection over 30 seconds and the catheter was flushed with 0.3 ml of 0.1% BSA before and after injection. Four hours later, the animals were studied. […] Cytokines measurements were assessed with serum isolated with serum clot activator tubes."}, "oleic acid-induced ALI [3]": {"test_system": "oleic acid-induced ALI", "assay": "Oleic acid-induced ALI rat model: blood cell counts and biochemistry", "type": "in vivo", "details": "OA + colchicine 1 mg/kg gavage, 4 hours after oleic acid, mean ± SEM", "experimental": "as §1\n(§3) There was one surgical death in oleic acid+colchicine treatment by laceration of the jugular vein, prior to injection of oleic acid. Oleic acid was administered under ketamine/xylazine anesthesia by slow bolus injection over 30 seconds and the catheter was flushed with 0.3 ml of 0.1% BSA before and after injection. Four hours later, the animals were studied. Conscious unrestrained respiratory parameters were obtained by whole body plethysmography (Emka technologies). Rats were then anesthetized with 2.5% isoflurance and 100% oxygen (1 L/min) administered with a nose cone/face mask for a duration of 5 minutes before terminal exsanguination. 2 ml of arterial blood was collected through the thoracic aorta into a syringe containing lyophilized heparin for arterial blood gas assessment. The remaining blood was collected into EDTA Lavendar tubes for complete blood count and flow cytometry. Cytokines measurements were assessed with serum isolated with serum clot activator tubes."}, "oleic acid-induced ALI [4]": {"test_system": "oleic acid-induced ALI", "assay": "Oleic acid-induced ALI rat model: lung histology and immunohistology (HPS, MPO, Cit-H3)", "type": "in vivo", "details": "colchicine 1 mg/kg gavage, 4 hours after oleic acid", "experimental": "as §1\nLung histology and immunohistology. All histological and immunohistological procedures were performed by the same person blinded to treatment assignment. The left lung was cannulated and perfused with 10% formalin PBS-buffered solution and fixed for 5 days. Tissues were dehydrated by incubating in a series of solutions with an increased ethanol content (70, 95, and 100%), followed by xylene, and embedded in paraffin. The specimens were cut into 6-μm sections, mounted on charged slides and processed with hematoxylin phloxine saffron (HPS) staining.\nImmunohistological procedures were initiated by incubating the slides in citrate antigen retrieval (pH 6.0) and endogenous peroxidase blocking (3% hydrogen peroxide). Sections were then blocked by incubating in PBS containing 10% normal goat serum (same species as secondary antibody) for 60 minutes. Slides were incubated with a rabbit polyclonal anti-myeloperoxidase (MPO, Pa5-16672; ThermoFisher, MA USA) for neutrophil detection, with a rabbit polyclonal anti-histone H3 citrulline R2+R8+R17, (Cit-H3, ab5103; ABCAM, Cambridge, United Kingdom) for NETosis and primary antibodies were omitted for negative controls. After washing, sections were incubated with a biotinylated secondary antibody (Vector Laboratories, Burlingame, Calif.) for 30 minutes, washed, then incubated with avidin-biotin complex (ABC kit) and visualized using diaminobenzidine substrate (Vector Laboratories) (27-29).\nThe HPS slides were scanned to get a picture of the whole left lung (Super coolscan 5000; Nikon, Tokyo Japan). Using a brightfield microscope (BX45, Olympus, Richmond Hill, ON, Canada), images were acquired under 200× magnification on the most damaged/altered regions, acquiring 5 fields per slide for the HPS staining and 10 fields per slide for IHC (MPO and Cit-H3) staining. For the HPS staining, the following analyses were performed: 1) thickness of alveolar membranes, 2) percentage (%) of altered lung tissue, and 3) injury score of the lungs.\nTo assess the thickness of alveolar membranes, 20 measurements per field were performed (corresponding to 100 measurements per slide) and were expressed as the mean thickness (μm) of the alveolar membranes. A morphometric analysis has been performed to assess the percentage of altered lung tissue over total lung area (excluding trachea, major bronchi, and blood vessels >700 μm diameter). To evaluate lung injury, we used an adapted version of the standardized histology score from the American Thoracic Society Documents (30). […]"}, "oleic acid-induced ALI [5]": {"test_system": "oleic acid-induced ALI", "assay": "Oleic acid-induced ALI rat model: serum cytokine quantification", "type": "in vivo", "details": "4 hours after oleic acid", "experimental": "as §1, §3\nSerum cytokine quantification. Quantitative determination of serum IFN-γ, IL-1β, IL-4, IL-5, IL-6, KC/GRO, IL-10, IL-13, and TNF-α was done using the electrochemiluminescence-based Meso Scale Discovery (MSD) platform (Rockville, Md., USA). Proteins levels were measured in a multiplex assay using the V-PLEX Proinflammatory Panel 2 Rat kit (MSD). Samples were diluted 1:5 in proprietary buffer (MSD) and measured. Data were acquired using a MESO QuickPlex SQ 120 plate reader (MSD) and protein concentrations were determined using the MSD Discovery Workbench 4.0 analysis software. All values reported are between the lower and the upper limits of quantification of the kit. Quantitative determination of serum Cit-H3 was measured by a commercially available ELISA kit (Cayman Chemical, 501620, Ann Arbor, Mich., USA)."}, "blood leukocytes [6]": {"test_system": "blood leukocytes", "assay": "In vitro LPS challenge of blood leukocytes from treated rats (CD11b flow cytometry)", "type": "in vivo", "details": "rat whole blood at sacrifice, LPS 500 ng/mL in vitro, 30 minutes", "experimental": "as §1\nIn vitro LPS challenge of blood leukocytes. Whole blood samples collected on EDTA-coated tubes were incubated, or not, with LPS (500 ng/mL) for 30 minutes at 37° C. […] Data were analyzed on Diva software version 8.0.1 (BD Biosciences)."}, "blood leukocytes [7]": {"test_system": "blood leukocytes", "assay": "Leukocyte immunophenotyping of whole blood by flow cytometry", "type": "in vivo, rat", "details": "4 hours after oleic acid", "experimental": "as §1\nLeukocyte immunophenotyping. Using reverse pipetting, 100 μl of whole blood collected on EDTA-coated tubes were incubated with anti-CD32 to prevent FC-mediated non-specific binding according to the manufacturer's instructions. The panel of antibodies as well as the gating strategy were inspired by Barnett-Vanes and al., PLoS One 2016; 11:e0142520.\nBriefly, a panel of 11 antibodies (Table 1) was used to identify the neutrophils (CD45^+/SSChi/His48^+), the monocytes (CD45^+/SSC^lo/His48 ^hi or lo/CD43^hi or lo), the B lymphocytes (CD45^+/SSC^lo/CD45R^−B220^+), the T lymphocytes (CD45^+/SSC^lo/CD3^+/CD4^+ or CD8^+), and the natural killer cells (CD45^+/SSC^lo/CD161a^+). The whole blood samples were incubated with the antibodies for 20 minutes at room temperature and the BD Pharm Lyse solution was then added for 10 minutes to lyse the erythrocytes. Samples were stored at 4° C. until analysis by flow cytometry (LSRII BD Biosciences). Accucount (Spherotech) was added to establish a cell count per μl of blood. Data were analyzed on Diva software version 8.0.1 (BD Biosciences)."}, "oleic acid-induced ALI [8]": {"test_system": "oleic acid-induced ALI", "assay": "Lung tissue mRNA expression of 27 markers of inflammation and injury by RT-qPCR", "type": "in vivo", "details": "rat lung, 4 hours after oleic acid; colchicine versus OA control", "experimental": "Animal model and colchicine administration. Male Wistar rats weighing 250-300 g were purchased from Charles River, St. Constant, Québec. They were divided in three groups: Sham+placebo (n=8), oleic acid+placebo (n=8) and oleic acid+colchicine (n=8). Oleic acid (150 mg/kg in 0.3 cc) was prepared daily as a mixture with 0.1% bovine serum albumin (BSA) dissolved in distilled water, stored and protected from light at room temperature. Colchicine (1 mg/kg) or distilled water (placebo) was administered by daily gavage (in a volume up to 2 ml/kg) for three days before the induction of the ALI model. […]\nas §2\nTissue homogenization, RNA extraction, RT-PCR, and real-time PCR. […] RNA integrity and quantity were assessed using a 2100 Bioanalyzer Instrument (Agilent, Santa Clara, Calif.). […] The geometric mean of housekeeping genes ACTB, GAPDH, and XBP1 was used as an internal control to normalize the variability in expression levels which were analyzed using the 2^−ΔΔCT method. […]"}, "[9]": {"details": "colchicine 1 mg/kg gavage, 4 hours after oleic acid, versus OA control"}, "[10]": {"details": "rat left lung, HPS staining, mean±SEM"}}, "note": "Marks after values point to notes of the source that are not given here."}
{"smiles": "COc1cc2c(c(OC)c1OC)-c1ccc(OC)c(=O)cc1[C@@H](NC(C)=O)CC2", "note": "[colchicine]", "values": [{"measurement": "PaO2 (equivalent to PaO2/FiO2)", "setting": "oleic acid-induced ALI [1]; colchicine 1 mg/kg daily gavage, 4 doses before oleic acid 150 mg/kg iv, 4 hours later, 100% FiO2, mean±SEM", "result": "246±45", "unit": "mmHg"}, {"measurement": "lung edema (pulmonary edema, total/dry lung weight ratio)", "setting": "oleic acid-induced ALI [1]; [9]", "result": "reduced"}, {"measurement": "respiratory acidosis", "setting": "oleic acid-induced ALI [1]; [9]", "result": "reduced"}, {"measurement": "Peek expiratory flow", "setting": "oleic acid-induced ALI [2]", "result": "13.19 ± 1.41"}, {"measurement": "Peek inspiratory flow", "setting": "oleic acid-induced ALI [2]", "result": "17.75 ± 2.72", "unit": "mL/s"}, {"measurement": "Calcium", "setting": "oleic acid-induced ALI [3]; corrected for pH", "result": "1.40 ± 0.01", "unit": "mmol/L"}, {"measurement": "Bicarbonate", "setting": "oleic acid-induced ALI [3]", "result": "27.6 ± 0.8", "unit": "mmol/L"}, {"measurement": "Lactate", "setting": "oleic acid-induced ALI [3]", "result": "2.4 ± 0.53", "unit": "mmol/L"}, {"measurement": "Leukocytes", "setting": "oleic acid-induced ALI [3]", "result": "4.90 ± 0.68** 10^9/L"}, {"measurement": "Neutrophils", "setting": "oleic acid-induced ALI [3]", "result": "2.71 ± 0.36** 10^9/L"}, {"measurement": "relative reduction of histological lung injury (injured area) versus oleic acid ALI group", "setting": "oleic acid-induced ALI [4]; rat left lung, HPS staining", "result": 61, "unit": "%"}, {"measurement": "Mean alveolar wall thickness", "setting": "oleic acid-induced ALI [4]; [10]", "result": "7.8±1.1", "unit": "μm"}, {"measurement": "lung injury score (maximum score of 70)", "setting": "oleic acid-induced ALI [4]; [10]", "result": "28.7±5.0"}, {"measurement": "proportion of injured area (altered lung tissue over total lung area)", "setting": "oleic acid-induced ALI [4]; [10]", "result": "9.6±3.1", "unit": "%"}, {"measurement": "NETosis (Cit-H3 immunostaining intensity), increase over basal level", "setting": "oleic acid-induced ALI [4]; rat lung, oleic acid alone 63%", "result": 35, "unit": "%"}, {"measurement": "other cytokines measured: Cit-H3, INF-γ, IL-10, IL-13, IL-4 and IL-5", "setting": "oleic acid-induced ALI [5]", "result": "no change"}, {"measurement": "serum IL-6 level", "setting": "oleic acid-induced ALI [5]; colchicine versus OA control", "result": "trend towards reduced"}, {"measurement": "serum KC/GRO", "setting": "oleic acid-induced ALI [5]; colchicine versus OA control", "result": "non-significantly reduced"}, {"measurement": "serum TNF-α", "setting": "oleic acid-induced ALI [5]; colchicine versus OA control", "result": "non-significantly reduced"}, {"measurement": "response to LPS stimulation (cell surface CD11b MFI) in leukocytes and granulocytes", "setting": "blood leukocytes [6]", "result": "restored the normal response"}, {"measurement": "cell surface CD4 and CD8 on respective lymphocyte sub-populations", "setting": "blood leukocytes [7]; rat blood", "result": "normalized"}, {"measurement": "lymphocytes counts on flow cytometry", "setting": "blood leukocytes [7]; rat blood", "result": "no change"}, {"measurement": "neutrophil count on flow cytometry", "setting": "blood leukocytes [7]; rat blood", "result": "increase in neutrophils that was significant"}, {"measurement": "His48 fluorescence of neutrophils", "setting": "blood leukocytes [7]; unstimulated rat blood", "result": "normalized"}, {"measurement": "lung tissue mRNA expression of 27 genes involved in inflammatory responses and injury", "setting": "oleic acid-induced ALI [8]", "result": "no individual statistically significant effect"}]}
